Results from BigSolDB 2.1.

CC[C@H]1OC(=O)[C@H](C)[C@@H](O[C@H]2C[C@@](C)(OC)[C@@H](O)[C@H](C)O2)[C@H](C)[C@@H](O[C@@H]2O[C@H](C)C[C@H](N(C)C)[C@H]2O)[C@](C)(O)C[C@@H](C)CN(C)[C@H](C)[C@@H](O)[C@]1(C)O.O
solubility (mole fraction)
Conditions | 278.15 K | 283.15 K | 288.15 K | 293.15 K | 298.15 K | 303.15 K | 308.15 K | 313.15 K | 318.15 K | 323.15 K
in acetone | 0.0305 | 0.0329 | 0.0353 | 0.0386 | 0.0424 | 0.0464 | 0.0512 | 0.0569 | 0.063 | 0.0721
in ethanol | 0.0299 | 0.0325 | 0.0348 | 0.0371 | 0.0406 | 0.0451 | 0.0491 | 0.0538 | 0.0573 | 0.0588
in ethyl acetate | 0.0324 | 0.0341 | 0.0366 | 0.0396 | 0.0436 | 0.0521 | 0.0593 | 0.0671 | 0.0743 | 0.081
in isopropanol | 0.0281 | 0.0303 | 0.0327 | 0.0349 | 0.0388 | 0.0433 | 0.0459 | 0.0507 | 0.0542 | 0.0575
in n-butanol | 0.0249 | 0.0254 | 0.0274 | 0.0282 | 0.0301 | 0.0324 | 0.0356 | 0.0386 | 0.0422 | 0.0466
